Where “and” joins values, the source holds several entries; their conditions need not be identical. Identical values can stand only once.

Series [1] deals with T1, human full-length Nurr1 monomer (NBRE) (Homo sapiens, UniProt P43354).
T1 construct: The full-length human nuclear receptor Nurr1 (pcDNA3.1-hNurr1-NE; Addgene plasmid #102363); host or cells: HEK293T
Briefly: Full-length Nurr1 reporter gene assay (NBRE). Conditions: 10 nM to 3 µM. In kind it is cell-based. The source says: (§1) Activation of full-length human Nurr1 was studied in transiently transfected HEK293T cells using the reporter plasmids pFR-Luc-NBRE[14], pFR-Luc-POMC[14] or pFR-Luc-DR5[14] each containing one copy of the respective human Nurr1 response element NBRE Nl3, NurRE, or DR5. The full-length human nuclear receptor Nurr1 (pcDNA3.1-hNurr1-NE; Addgene plasmid #102363) and, for DR5, RXRα (pSG5-hRXR)[57] were overexpressed. pRL-SV40 (Promega) was used for the normalization of transfection efficacy and to observe test compound toxicity. […] After 24 h, the medium was changed to Opti-MEM without supplements, and cells were transiently transfected using Lipofectamine LTX reagent (Invitrogen) according to the manufacturer’s protocol. Five hours after transfection, cells were incubated with the test compounds in Opti-MEM supplemented with penicillin (100 U/mL), streptomycin (100 μg/mL) and 0.1% DMSO for 16 h before luciferase activity was measured using the Dual-Glo Luciferase Assay System (Promega) according to the manufacturer’s protocol on a Tecan Spark luminometer (Tecan Deutschland GmbH). Firefly luminescence was divided by Renilla luminescence and multiplied by 1000 resulting in relative light units (RLU) to normalize for transfection efficiency and cell growth. Fold activation was obtained by dividing the mean RLU of the test compound by the mean RLU of the untreated control. All samples were tested in at least three biologically independent experiments in duplicates. For dose-response curve fitting and calculation of EC50 values, the equation “[Agonist] vs. response -- Variable slope (four parameters)” was used in GraphPad Prism (version 7.00, GraphPad Software).
(In a reporter assay the amount or activity of a reporter protein is the signal.)

Series [2] concerns the target T2, human full-length Nurr1 homodimer (NurRE) (Homo sapiens, UniProt P43354).
T2 construct: The full-length human nuclear receptor Nurr1 (pcDNA3.1-hNurr1-NE; Addgene plasmid #102363); host or cells: HEK293T
Briefly: Full-length Nurr1 reporter gene assay (NurRE). Particulars: 10 nM to 3 µM. In kind it is cell-based.
Text: as §1

The target in a further series is T3, NOR-1 (Homo sapiens, UniProt Q92570).
T3 construct: chimeric receptors composed of the Gal4-DBD and the hinge region and LBD; expressed in transfected cells; host or cells: HEK293T
T3 sequence (Q92570 394-623 limits assumed): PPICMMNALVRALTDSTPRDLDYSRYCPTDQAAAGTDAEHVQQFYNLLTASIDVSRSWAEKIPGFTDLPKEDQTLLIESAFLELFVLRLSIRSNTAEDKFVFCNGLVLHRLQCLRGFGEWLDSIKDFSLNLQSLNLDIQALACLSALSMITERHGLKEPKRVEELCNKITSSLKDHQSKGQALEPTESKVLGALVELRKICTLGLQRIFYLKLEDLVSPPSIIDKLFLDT
Description: Gal4-NOR-1 hybrid reporter gene assay. Conditions: 10 nM to 3 µM. In kind it is cell-based. Here is the method:
(§2) Nurr1 modulation was determined in a Gal4 hybrid reporter gene assay in HEK293T cells (German Collection of Microorganisms and Cell Culture GmbH, DSMZ) using pFR-Luc (Stratagene, La Jolla, CA, USA; reporter), pRL-SV40 (Promega, Madison, WI, USA; internal control) and pFA-CMV-hNurr1-LBD[14], coding for the hinge region and ligand binding domain of the canonical isoform of human Nurr1. […] After 24 h, the medium was changed to Opti-MEM without supplements, and cells were transiently transfected using Lipofectamine LTX reagent (Invitrogen, Carlsbad, CA, USA) according to the manufacturer’s protocol. Five hours after transfection, cells were incubated with the test compounds in Opti-MEM supplemented with penicillin (100 U/mL), streptomycin (100 μg/mL), and 0.1% DMSO for 16 h before luciferase activity was measured using the Dual-Glo Luciferase Assay System (Promega) according to the manufacturer’s protocol on a Tecan Spark luminometer (Tecan Deutschland GmbH, Crailsheim, Germany). Firefly luminescence was divided by Renilla luminescence and multiplied by 1000 resulting in relative light units (RLU) to normalize for transfection efficiency and cell growth. Fold activation was obtained by dividing the mean RLU of the test compound by the mean RLU of the untreated control. All samples were tested in at least three biologically independent experiments in duplicates. For dose-response curve fitting and calculation of EC50 values, the equation “[Agonist] vs. response -- Variable slope (four parameters)” was used in GraphPad Prism (version 7.00, GraphPad Software, La Jolla, CA, USA). Selectivity profiling was performed with identical procedures using pFA-CMV-Nur77-LBD[14], pFA-CMV-NOR-1-LBD[14], pFA-CMV-THRα-LBD[51], pFA-CMV-RARα-LBD[52], pFA-CMV-PPARα-LBD[53], pFA-CMV-PPARγ-LBD[53], pFA-CMV-PPARδ-LBD[53], pFA-CMV-LXRα-LBD[54], pFA-CMV-FXR-LBD[55] and pFA-CMV-hRXRα-LBD[56].

The target of series [3] is T4, Nurr1-RXR heterodimer (DR5) (Homo sapiens, UniProt P43354).
T4 construct: The full-length human nuclear receptor Nurr1 (pcDNA3.1-hNurr1-NE; Addgene plasmid #102363); host or cells: HEK293T
T4 sequence (P43354 whole entry): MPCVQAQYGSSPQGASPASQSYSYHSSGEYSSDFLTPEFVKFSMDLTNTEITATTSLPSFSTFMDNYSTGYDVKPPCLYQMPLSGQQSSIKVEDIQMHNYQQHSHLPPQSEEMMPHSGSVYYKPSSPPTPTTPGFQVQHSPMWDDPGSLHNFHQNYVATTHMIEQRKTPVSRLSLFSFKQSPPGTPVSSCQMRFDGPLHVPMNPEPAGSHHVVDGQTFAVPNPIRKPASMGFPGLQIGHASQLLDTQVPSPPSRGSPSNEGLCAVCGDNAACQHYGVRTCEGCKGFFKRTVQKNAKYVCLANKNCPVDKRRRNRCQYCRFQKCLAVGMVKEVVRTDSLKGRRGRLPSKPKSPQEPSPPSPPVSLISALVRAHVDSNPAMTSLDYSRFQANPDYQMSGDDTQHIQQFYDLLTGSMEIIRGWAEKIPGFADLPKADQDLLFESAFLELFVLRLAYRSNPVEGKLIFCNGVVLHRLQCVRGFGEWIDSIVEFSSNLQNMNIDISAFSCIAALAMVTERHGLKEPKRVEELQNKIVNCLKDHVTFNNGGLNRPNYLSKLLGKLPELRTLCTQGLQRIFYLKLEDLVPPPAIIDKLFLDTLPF
T4 sequence (P19793 whole entry partner): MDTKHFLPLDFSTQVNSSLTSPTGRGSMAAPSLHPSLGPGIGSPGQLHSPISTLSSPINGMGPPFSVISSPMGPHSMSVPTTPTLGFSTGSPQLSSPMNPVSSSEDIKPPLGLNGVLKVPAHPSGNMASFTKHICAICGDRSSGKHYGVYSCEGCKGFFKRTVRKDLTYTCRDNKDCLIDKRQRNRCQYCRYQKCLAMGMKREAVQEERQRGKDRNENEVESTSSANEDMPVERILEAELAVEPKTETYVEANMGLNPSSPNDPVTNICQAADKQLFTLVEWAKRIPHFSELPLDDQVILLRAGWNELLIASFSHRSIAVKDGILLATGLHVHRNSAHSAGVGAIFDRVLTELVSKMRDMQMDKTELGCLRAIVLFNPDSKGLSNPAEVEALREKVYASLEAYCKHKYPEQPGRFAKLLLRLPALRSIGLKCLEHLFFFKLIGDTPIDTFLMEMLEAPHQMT
Description: Full-length Nurr1 reporter gene assay (DR5). In kind it is cell-based. Particulars: 10 nM to 3 µM. Here is the method:
Activation of full-length human Nurr1 was studied in transiently transfected HEK293T cells using the reporter plasmids pFR-Luc-NBRE[14], pFR-Luc-POMC[14] or pFR-Luc-DR5[14] each containing one copy of the respective human Nurr1 response element NBRE Nl3, NurRE, or DR5. […] After 24 h, the medium was changed to Opti-MEM without supplements, and cells were transiently transfected using Lipofectamine LTX reagent (Invitrogen) according to the manufacturer’s protocol. Five hours after transfection, cells were incubated with the test compounds in Opti-MEM supplemented with penicillin (100 U/mL), streptomycin (100 μg/mL) and 0.1% DMSO for 16 h before luciferase activity was measured using the Dual-Glo Luciferase Assay System (Promega) according to the manufacturer’s protocol on a Tecan Spark luminometer (Tecan Deutschland GmbH). Firefly luminescence was divided by Renilla luminescence and multiplied by 1000 resulting in relative light units (RLU) to normalize for transfection efficiency and cell growth. Fold activation was obtained by dividing the mean RLU of the test compound by the mean RLU of the untreated control. All samples were tested in at least three biologically independent experiments in duplicates. For dose-response curve fitting and calculation of EC50 values, the equation “[Agonist] vs. response -- Variable slope (four parameters)” was used in GraphPad Prism (version 7.00, GraphPad Software).

The target in another series is T5, Nur77 (Homo sapiens, UniProt P22736).
T5 construct: chimeric receptors composed of the Gal4-DBD and the hinge region and LBD; expressed in transfected cells; host or cells: HEK293T
T5 sequence (P22736 360-595 limits assumed): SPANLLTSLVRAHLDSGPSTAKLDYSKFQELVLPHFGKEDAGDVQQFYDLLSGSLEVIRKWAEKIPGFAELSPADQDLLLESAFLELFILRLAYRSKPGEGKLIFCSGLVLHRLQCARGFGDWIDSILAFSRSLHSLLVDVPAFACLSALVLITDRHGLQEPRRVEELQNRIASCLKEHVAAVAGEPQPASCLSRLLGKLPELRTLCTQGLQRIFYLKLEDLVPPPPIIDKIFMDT
Description: Gal4-Nur77 hybrid reporter gene assay. In kind it is cell-based. Particulars: 10 nM to 3 µM. Here is the method: as §2

Series [4] relates to full-length human Nurr1 (NBRE). Further details: method as in earlier work. Conditions: cited from earlier work.
The next series has as its target T6, Nurr1 LBD (Homo sapiens, UniProt P43354).
T6 construct: Nurr1 LBD protein (5–30 µM, expressed as described previously[21]); made in house
Briefly: Isothermal titration calorimetry (ITC). In kind it is binding. Particulars: 25 °C. The method, then:
ITC experiments were conducted on an Affinity ITC instrument (TA Instruments, New Castle, DE) at 25 °C with a stirring rate of 75 rpm. Nurr1 LBD protein (5–30 µM, expressed as described previously[21]) in buffer (20 mM Tris pH 7.5, 100 mM NaCl, 5% glycerol) containing 1–4% DMSO was titrated with the test compounds (30–150 μM in the same buffer containing 1-4% DMSO) in 26 injections (1 × 1 µL, 25 × 3-4 μL) with an injection interval of 120-150 s. As control experiments, the test compounds were titrated to the buffer, and the buffer was titrated to the Nurr1 LBD protein under otherwise identical conditions. Results were analyzed using NanoAnalyze software (version 3.11.0, TA Instruments, New Castle, DE) with independent binding models.
(Isothermal titration calorimetry measures the heat released or taken up as one component is titrated into another.)

Series [5] deals with T7, human Nurr1 (hinge region and ligand binding domain) (Homo sapiens, UniProt P43354).
T7 construct: expressed in transfected cells; host or cells: HEK293T
T7 sequence (P43354 360-595 limits assumed): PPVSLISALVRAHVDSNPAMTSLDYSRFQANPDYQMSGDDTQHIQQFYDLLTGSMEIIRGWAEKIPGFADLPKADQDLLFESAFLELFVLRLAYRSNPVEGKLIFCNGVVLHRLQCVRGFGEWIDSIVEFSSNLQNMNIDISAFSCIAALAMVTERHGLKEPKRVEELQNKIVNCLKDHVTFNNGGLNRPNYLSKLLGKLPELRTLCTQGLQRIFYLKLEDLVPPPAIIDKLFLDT
Description: Gal4-Nurr1 hybrid reporter gene assay. In kind it is cell-based. The method, then: as §2

A further series has as its system Nurr1. Further details: method as in PMID 26124091. Particulars: read-out: EC50 (Nurr1 agonism); cited from earlier work.
The subject of the next series is N27 rat neurons. Briefly: WST-8 cytotoxicity assay, N27. In kind it is cell-based. The method, then:
(§3) Each sample was prepared in four biologically independent repeats. After incubation for 24 h, the medium was refreshed and 10% water-soluble tetrazolinum salt (Cell Counting Kit-8, MedChemExpress) was added to assess metabolic activity. After 4 h, absorbance was measured at 450 nm using a Tecan Spark Cyto instrument (Tecan).
(Tetrazolium assays rely on reduction of a dye to a coloured formazan, in cell work by metabolically active cells.)

For the next series, the system named is HEK293T cells. Description: WST-8 cytotoxicity assay, HEK293T. In kind it is cell-based, human. Conditions: for rel. absorbance (450 nm): HEK293T, WST-8, vs DMSO ctrl. The method, then:
as §3

T2 sequence (P43354 whole entry): as the sequence (P43354 whole entry) above
T1 sequence (P43354 whole entry): as above
T6 sequence (P43354 360-595 limits assumed): as the sequence (P43354 360-595 limits assumed) above

The EC50 is the concentration that produces a half-maximal response. With `CC(C)(O)c1cccc(-c2ccc3nc(-c4ccc(Cl)cc4)cn3c2)c1` [SA00025, reference compound], the “activation of full-length Nurr1 on NBRE” value in series [1] was “no effect and no”. For the same molecule, in series [2], the “activation of full-length Nurr1 on NurRE” value was “no effect and no”. Also, the “activation of NOR1” value at NOR-1 is “No activation”. In series [3], the “activation of full-length Nurr1 on DR5” value was “no effect and no”. Besides, the “activation of Nur77” value at Nur77 is on record as “No activation”. Further, the half-maximal effective concentration (EC50) in [4] is 0.217 µM. Also, at Nurr1 LBD, the “Kd (Nurr1 LBD)” value is recorded as “potential weak binding”. Further, the “activation of Nurr1” value in series [5] (Gal4 hybrid reporter, 10 nM to 3 µM) is “No activation”. In addition, in series [5] (concentrations higher than 3 µM, drop in renilla luciferase control, HEK293T), the “cytotoxicity in reporter gene assays” value is listed as “considerably cytotoxic”.
Regarding `CCN(CC)Cc1cc(Nc2ccnc3cc(Cl)ccc23)ccc1O` [AQ, amodiaquine], the EC50 in the series on Nurr1 is ~20 µM. Moreover, the “rel. absorbance (450 nm)” value in the series on N27 rat neurons (N27, 10 µM, WST-8, vs DMSO ctrl) is 37% and 39% and 40%; in the series on HEK293T cells (10 µM), 75% and 70%; in the series on HEK293T cells (30 µM), 47%. The “rel. absorbance (450 nm) / remaining metabolic activity” value in the series with N27 rat neurons (N27, 30 µM, WST-8, vs DMSO ctrl) was 21% and 22% and 23%. The “toxicity (WST-8)” value with N27 rat neurons (N27 rat neurons, 24 h) was “toxic”; in the series on HEK293T cells (HEK293T cells, 24 h), “toxic”.

The values are drawn from paper PMC11217349, “Development of Nurr1 agonists from amodiaquine by scaffold hopping and fragment growing” (Communications Chemistry, 2024).
